Source: patent publication US7312358B2, “Pharmaceutically active sulfanilide derivatives” (Laboratoires Serono SA, priority 2000, dated 2007)

How the values were obtained:
ratOT-R = target: T1, ratOT-R (Rattus norvegicus, UniProt P70536); assay: Inhibition of IP3 (inositol tri-phosphate)-synthesis in HEK/EBNA-OTR cells; format: cell-based; details: [3H]-inositol, oxytocin 10 nM
T1 construct: expressed in transfected cells; host or cells: HEK/EBNA cells
T1 sequence (P70536 1-388): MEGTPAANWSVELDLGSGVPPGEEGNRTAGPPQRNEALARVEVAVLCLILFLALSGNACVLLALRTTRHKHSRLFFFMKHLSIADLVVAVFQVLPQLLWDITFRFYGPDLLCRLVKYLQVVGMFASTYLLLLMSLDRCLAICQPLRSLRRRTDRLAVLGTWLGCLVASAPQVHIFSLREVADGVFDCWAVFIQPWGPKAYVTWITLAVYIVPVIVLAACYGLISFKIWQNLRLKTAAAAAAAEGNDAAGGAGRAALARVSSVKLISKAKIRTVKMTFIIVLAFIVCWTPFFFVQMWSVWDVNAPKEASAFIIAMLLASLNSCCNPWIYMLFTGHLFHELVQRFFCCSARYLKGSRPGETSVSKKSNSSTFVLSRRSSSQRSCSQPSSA
Protocol: e) Functional Assay No. 2: Inhibition of IP3 (Inositol Tri-Phosphate)-Synthesis in HEK/EBNA-OTR Cells
This assay intends to show the inhibition of the OT/OT-R mediated IP3 synthesis—being necessary to cause uterine contractions—by using test compounds of formula (I).
Stimulation of the cells: IIEK/EBNA OTR(rat or human) cells were plated out into costar 12-well plates, and equilibrated for 15-24 h with [^3H]-inositol radiolabel in medium without inositol supplement, with 1% FCS (0.5 ml/well). 4 μCi/ml were used. After this, the medium containing the label was aspirated. Then was added DMEM (without FCS, inositol), 20 mM Hepes (4-(2-hydroxyethyl)-1-piperazine-ethane-sulphonic acid), 1 mg/ml BSA containing 10 mM LiCl (freshly prepared), for […] at 37° C. The agonist (i.e. oxytocin used at a concentration of 10 nM) and the antagonists (i.e. the tests compounds of formula (1) used in a concentration of 10 μM, 1 μM, 300 nM, 100 nM, 10 nM, 1 nM, 100 pM, 10 pM, 3 pM) were added for the time required (15-45 min), followed by aspiration of the medium. Due to the […] of the OT receptor, the radiolabeled inositol is phosphorylated to yield IP3, the amount of the radiolabeled IP3 may be determined through the ensuing work-up. The reaction was stopped with 1 ml STOP-solution (i.e. 0.4 M perchloric acid), and let sit for 5-10 min at Room Temperature. Then, 0.8 ml were transferred into tubes containing 0.4 ml of neutralizing solution (0.72 M KOH/0.6M KHCO3), and the tubes vortexed and kept in the cold at least for 2 h.
Separation of IP's: The samples were spun in a table top centrifuge at 3000-4000 rpm for 15 min. 1 ml of the supernatant was transferred to new tubes containing 2.5 ml H2O. Packed resin (0.8 ml) was equilibrated with 20 ml H2O, and the whole samples poured onto the chromatography columns, thus separating the mixture. To discard free inositol, two washes with 10 ml H2O were carried out.
Elution of total IP's: The elution was achieved using 3 ml 1M ammonium formate/0.1M formic acid. The eluant was collected in scintillation counting tubes, followed by addition of 7 ml of scintillation liquid. The amount of IP3 is determined by a scintillating counter.
(§1) The activities of the sulfanilide derivatives claimed in the formula I were assessed using the above described in vitro biological assay. The values refer to the capacity of the example compounds according to formula I to effectively antagonize oxytocin-induced IP3-synthesis mediated by the oxytocin receptor.

hOT-R = target: T2, hOT-R (Homo sapiens, UniProt P30559); assay: Inhibition of oxytocin mediated Ca2+-mobilization by FLIPR (HEK cells); format: cell-based; details: fluo-4, OT 40 nM
T2 construct: expressed in transfected cells; host or cells: HEK (Human Embryonic Kidney) cells
T2 sequence (P30559 1-389): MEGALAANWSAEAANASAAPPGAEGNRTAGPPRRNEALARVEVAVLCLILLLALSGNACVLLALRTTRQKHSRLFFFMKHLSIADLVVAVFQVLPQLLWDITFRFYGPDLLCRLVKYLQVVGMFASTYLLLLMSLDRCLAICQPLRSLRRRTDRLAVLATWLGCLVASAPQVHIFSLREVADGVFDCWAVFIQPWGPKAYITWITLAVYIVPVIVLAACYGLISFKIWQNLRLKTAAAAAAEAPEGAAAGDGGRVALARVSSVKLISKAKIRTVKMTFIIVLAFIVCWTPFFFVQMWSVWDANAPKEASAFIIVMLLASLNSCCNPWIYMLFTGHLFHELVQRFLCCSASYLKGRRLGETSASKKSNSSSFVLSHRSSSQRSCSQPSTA
Description: c) Functional Assay No. 1: Inhibition of Oxytocitn Mediated Ca^2+-Mobilization by FLIPR (Fluorescent Imaging Plate Reader)
(§2) FLIPR is a machine for fluorescence imaging using a laser that is capable of illuminating a 96-well plate and a means of simultaneously reading each well thus enabling rapid measurements on a large number of samples.
This assay intends to show the inhibition of the OT/OT-R mediated calcium mobilisation—being necessary to cause uterine contractions—by using test compounds of formula (I).
Preparing the plates: FLIPR-plates were pre-coated with PLL (Poly-L-Lysine) 10 μg/ml+0.1% gelatine to attach the HEK (Human Embryonic Kidney) cells for 30 min up to 2 days at 37° C. The cells were plated out into 96-well plates (60000 cells/well).
(§3) Labelling with fluo-4: 50 kg fluo-4 (fluorescent marker) were dissolved in 20 μl pluronic acid (20% in DMSO). The dissolved fluo-4 was then diluted in 10 ml DMEM (Dubecco's Minimal Essential Medium-F12 medium without FCS (Fetal Calf Serum). The medium was removed from the plates, followed by one wash with DNEM-F12 medium. Now, 100 μl of the DMEM-F12 medium containing fluo-4 were added and the cells incubated for 1.5-2 h (HEK-cells). The cells now contain the fluorescent marker.
(§4) Buffer: 145 mM NaCl, 5 mM KCl, 1 mM MgCl2, 10 mM Hepes, 10 mM Glucose, EGTA (Ethylene-bis oxyethylene nitrilo tetraacetic acid). Adjust to pH 7.4.
(§5) Performance of the assay: A minimum of 80 μl/well of antagonists (5×) in the above buffer (1×) were prepared (96-well plates). The antagonists were added to the well-plates at different concentrations (30 μM, 10 μM, 1 μM, 300 nM, 100 nM, 10 nM, 1 nM, 100 pM, 10 pM).
OT is added at a concentration of 40 nM.
(§6) The fluorescent marker being sensitive to the amount of Ca^2+ mobilized within the cell may be quantified by the FLIPR machine.
as §1, with “according to” for “claimed in the”, “intracellular Ca^2+-mobilization” for “IP3-synthesis”

hV1a [1] = target: T3, hV1a (Homo sapiens, UniProt P37288); assay: Inhibition of vasopressin-mediated Ca2+-mobilization by FLIPR (CHO cells expressing hV1a); format: cell-based; design: expressed in transfected cells; host or cells: CHO cells; details: fluo-4, AVP 40 nM
Description: d) Functional Assay No. 1: Inhibition of Vasopressin-Mediated Ca^2+-mobilization by FLIPR (Fluorescent Imaging Plate Reader)
as §2
This assay intends to show the inhibition of the AVP/V1a-R mediated calcium mobilisation—being necessary to cause uterine contractions—by using test compounds of formula (1).
Preparing the plates: FLIPR-plates were pre-coated with PLL (Poly-L-Lysine) 10 μg/ml+0.1% gelatine to attach the CHO cells (expessing hV1a) for 30 min up to 2 days at 37° C. The cells were plated out into 96-well plates (60000 cells/well).
as §3, with “μg” for “kg”, “DMEM-F12” for “DNEM-F12”, “1-1.5” for “1.5-2”, “(CHO-cells).” for “(HEK-cells).”
as §4, §5
AVP is added at a concentration of 40 nM.
as §6
as §1, with “according to” for “claimed in the”, “AVP-induced intracellular Ca^2+-mobilization” for “oxytocin-induced IP3-synthesis”, “VIa-receptor.” for “oxytocin receptor.”

hV1a [2] = target: T3, hV1a; assay: In vitro competition binding assay on hV1a receptor with scintillating proximity assay; design: expressed in transfected cells; host or cells: CHO cells (membranes); details: membranes from CHO cells expressing hV1a receptor; radiolabel [125I]-LVA; SPA; read-out: Binding Affinity Human V1a Ki
Protocol: b) In Vitro Competition Binding Assay on hV1a Receptor with Scintillating Proximity Assay
This assays allows to determine the affinity of the test compounds for the V1a receptor. Membranes from CHO cells expressing the hV1a receptor were resuspended in buffer containing 50 mM Tris-HCl, pH 7.4, 5 mM MgCl2 and 0.1% BSA (w/v). The membranes (5-10 μg) were mixed with 0.2 mg wheat-germ aglutinin (WGA) SPA bead (type A) and 0.03 nM of the radiolabel [^125I]-LVA (LVA being Linear Vasopressin Antagonist and is an analogue of AVP for competition binding experiments). Non-specific binding was determined in the presence of 1 μM AVP. The total assay volume was 100 μl. The plates (Corning 0 NBS plate) were incubated at room temperature for 2 hours and counted on a Mibrobeta plate counter. The tests compounds were used in concentrations of 30 μM, 10 μM, 1 μM, 300 nM, 100 nM, 10 nM, 1 nM, 100 pM, 10 pM. The competition binding data were analysed using the iterative, nonlinear, curve-fitting program, Graph pad “Prism”.
The binding affinities to the Via receptor of the sulfanilide derivatives claimed in the formula I were assessed using the above described in vitro biological assay. The values refer to the binding affinity (IC50; HM) of the example compounds according to formula I to the V1a receptor. From the values shown in Table 1 it can be derived that said test compounds according to formula I do show a significant binding to the Via receptor.

T3 sequence (P37288 whole entry): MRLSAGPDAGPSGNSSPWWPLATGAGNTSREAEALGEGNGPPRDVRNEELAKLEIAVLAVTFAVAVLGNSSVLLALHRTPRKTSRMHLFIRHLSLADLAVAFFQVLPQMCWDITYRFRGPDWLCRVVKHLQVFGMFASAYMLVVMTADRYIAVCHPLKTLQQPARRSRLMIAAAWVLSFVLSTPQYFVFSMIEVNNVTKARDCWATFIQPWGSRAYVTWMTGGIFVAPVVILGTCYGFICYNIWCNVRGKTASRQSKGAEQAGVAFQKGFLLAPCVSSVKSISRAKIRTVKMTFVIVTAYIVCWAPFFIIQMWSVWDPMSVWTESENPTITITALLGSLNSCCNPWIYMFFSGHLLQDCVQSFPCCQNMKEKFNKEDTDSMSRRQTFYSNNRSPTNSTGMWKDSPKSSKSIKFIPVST

| SMILES | IC50 (ratOT-R) [nM] | IC50 (hV1a [1]) [nM] | other results |
| --- | --- | --- | --- |
| Cc1c(Cl)cccc1NC(=O)CN(c1ccc(Cl)cc1)S(=O)(=O)c1ccccc1 [2-[Benzenesulfonyl-(4-chloro-phenyl)-amino]-N-(3-chloro-2-methyl-phenyl)-acetamide] | 320 |  | IC50 (hOT-R): 443 nM |
| COc1ccc(S(=O)(=O)N(CC(=O)N/N=C/c2ccccc2O)c2ccc(Cl)cc2)cc1OC [Example 37, N-(4-chlorophenyl)-N-{2-[(2E)-2-(2-hydroxybenzylidene)hydrazino]-2-oxoethyl}-3,4-dimethoxybenzenesulfonamide] |  |  | Ki (hV1a [2]): 550 nM; melting point: 188 to 189 °C |
| COc1ccc(/C=N/NC(=O)CN(c2cccc(Cl)c2)S(=O)(=O)c2ccccc2)cc1OC [N-(3-Chloro-phenyl)-N-(3,4-dimethoxy-benzylidene-hydrazinocarbonylmethyl)-benzenesulfonamide] |  | 550 |  |
| C/C(=N/NC(=O)CN(c1cccc(Cl)c1)S(=O)(=O)c1ccccc1)c1ccccc1O [N-(3-Chloro-phenyl)-N-[1-(2-hydroxy-phenyl)-ethylidene-hydrazinocarbonylmethyl]-benzenesulfonamide] |  | 370 |  |
| O=C(CN(c1ccccc1)S(=O)(=O)c1ccccc1)N/N=C1\C(=O)Nc2ccccc21 [N-{2-oxo-2-[2-(2-oxo-1,2-dihydro-3H-indol-3-ylidene)hydrazino]ethyl}-N-phenylbenzenesulfonamide] | 300 |  |  |

The next lines start with results.

| IC50 (ratOT-R) [nM] | IC50 (hV1a [1]) [nM] | SMILES | other results |
| --- | --- | --- | --- |
| 110 |  | Cc1c(Cl)cccc1NC(=O)CN(c1ccc(Br)cc1)S(=O)(=O)c1ccccc1 [2-[Benzenesulfonyl-(4-bromo-phenyl)-amino]-N-(3-chloro-2-methyl-phenyl)-acetamide] | IC50 (hOT-R): 353 nM |
|  | 90 | COc1ccc(N(CC(=O)Nc2ccc(Cl)cc2C)S(=O)(=O)c2ccccc2)cc1 [2-[Benzenesulfonyl-(4-methoxy-phenyl)-amino]-N-(4-chloro-2-methyl-phenyl)-acetamide] |  |
|  | 440 | COc1ccc(/C=N/NC(=O)CN(c2cccc(Br)c2)S(=O)(=O)c2ccccc2)cc1OC [N-(3-Bromo-phenyl)-N-(3,4-dimethoxy-benzylidene-hydrazinocarbonylmethyl)-benzenesulfonamide] |  |
| 48 |  | C/C(=N\NC(=O)CN(c1ccc(Br)cc1)S(=O)(=O)c1ccccc1)c1ccccc1O [drawing 168, N-(4-bromophenyl)-N-(2-{2-[1-(2-hydroxyphenyl)ethylidene]hydrazino}-2-oxoethyl)benzenesulfonamide] |  |
